The text below walks through data of US20250312352A1, “GLP-1R MODULATING COMPOUNDS” (Gilead Sciences, Inc., priority 2021, published 2025).

Structures are written as SMILES.

Data set [1] can be described thus: Pharmacokinetic (PK) studies, monkey oral PK. In kind it is in vivo, Cynomolgus monkeys. The settings on record: for bioavailability / Tmax / AUC(0-t) / Cmax: plasma, Cynomolgus monkey; for bioavailability: oral dose 2 mg/kg (CE-1: 1 mg/kg); for Tmax / AUC(0-t) / Cmax: single oral dose 2 mg/kg (CE-1: 1 mg/kg); for AUC(0-t): read-out: AUC0-24 (Arbitrary units); for Cmax: read-out: Cmax (Arbitrary unit). As to the method: Examples 54 and 253 were tested along with comparative examples CE-1 and CE-2.
Compounds CE-2, Example 54 or Example 253 were combined with a mixture of 10% NMP (v:v) and 90% PEG300 (v:v), and the mixture was stirred until a homogeneous solution was obtained (1 mg/mL final concentration of test article).
Compound CE-1 was combined with a mixture of 15% 2-hydroxypropyl-o-cyclodextrin (w:v) and 85% Mili-Q water (v:v), and the mixture was stirred until a homogeneous solution was obtained (0.5 mg/mL final concentration of test article).
Young adult non-naive Cynomolgus monkeys with weight about 2.5-5 kg (n=1-3/test article/route) were fasted overnight and then dosed with either CE-1 (at 1 mg test article per kg animal weight), CE-2 (at 2 mg test article per kg animal weight), Example 54 (at 2 mg test article per kg animal weight), or Example 253 (at 2 mg test article per kg animal weight). Food was supplied approximately 4 hours post dose and animals were provided with free access to water all the time. Animals were restrained at designated time points for blood sampling. Approximately 500 μL of blood samples was taken via cephalic or saphenous vein into EDTA-K2 tubes. For oral administration (PO): blood samples were generally collected pre-dose, and at 15 min, 30 min, 1 hr, 2 hr, 4 hr, 8 hr, 12 hr, and 24 hr time points after dosing. Blood was maintained on wet ice, in chilled cryoracks, or at approximately 5° C. prior to centrifugation to obtain plasma. Centrifugation was conducted within 1 hour of collection. Plasma (approximately 200 μL) was placed into a micronic tubes containing 4 μL of formic acid (the final concentration of formic acid in plasma was approximately 2%) and samples were vortex mixed. Samples were maintained on dry ice prior to storage at approximately −70° C.
LC-MS/MS assays were utilized to quantify the concentration of the test articles in plasma as follows.
50 μL plasma sample was mixed with 350 μL of ACN combined with an internal standard. The mixture was then vortexed for about 1-5 min, and centrifuged at about 4,000-5,800 rpm for about […]. An aliquot of 1 μL supernatant was used for LC-MS/MS analysis.
MS conditions: A Sciex API 6500 equipped with electrospray ionization in the positive ion selected reaction monitoring mode was used for detection.
HPLC conditions • Mobile Phase A: H2O-0.1% Formic Acid • Mobile Phase B: ACN-0.1% Formic Acid
• Column: Phenomenex Kinetex XBC18 (2.1×50 mm, 2.6 μm) with a flow rate of 1.20 mL/min • Column temperature: 60° C. • Retention time: approximately between 0.85 to 1.05 • min
Pharmacokinetics parameters, including area under the curve (AUC0-24), maximum plasma concentration (Cmax), time to reach maximum plasma concentration (Tma), oral bioavailability (F %), etc., were calculated using Dotmatics software in non-compartmental model.

Data set [2] concerns the target T1, GLP-1R (Homo sapiens, UniProt P43220).
T1 construct: host or cells: CHO cells
The data set is described as follows: GLP-1R activation cAMP assay (Assay 1 or Assay 2). The settings on record: cAMP increase in CHO cells stably expressing GLP-1R; compounds run on one of the two cAMP assays. The class given is cell-based. The method, boiled down: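 CHO cells stably expressing human GLP-1R were incubated 1 h in HBSS/20 mM HEPES/0.1% BSA, then exposed to 10-point agonist dilutions for 30 min at 37 °C. cAMP increase was measured with an HTRF Gs dynamic kit; EC50 from sigmoidal fit of response versus log concentration.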
A general note: cAMP levels reflect the balance of adenylyl cyclase and phosphodiesterase activity.

T1 sequence (P43220 24-463): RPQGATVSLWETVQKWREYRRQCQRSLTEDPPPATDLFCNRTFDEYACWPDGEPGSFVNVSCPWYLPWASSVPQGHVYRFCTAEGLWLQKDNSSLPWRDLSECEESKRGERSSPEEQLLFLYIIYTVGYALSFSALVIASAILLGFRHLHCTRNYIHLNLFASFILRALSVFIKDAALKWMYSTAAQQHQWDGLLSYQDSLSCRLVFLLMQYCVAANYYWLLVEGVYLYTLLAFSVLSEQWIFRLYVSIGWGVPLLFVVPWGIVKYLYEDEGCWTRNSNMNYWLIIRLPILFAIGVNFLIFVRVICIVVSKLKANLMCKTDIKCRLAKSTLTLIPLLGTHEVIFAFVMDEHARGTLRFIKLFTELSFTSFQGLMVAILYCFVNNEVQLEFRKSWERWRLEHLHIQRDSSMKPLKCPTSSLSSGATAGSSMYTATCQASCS

As a reminder, the bioavailability is the share of a dose that reaches the circulation, judged against a reference dose that is usually intravenous. Consider `N#Cc1ccc(COc2cccc(-c3cc(F)c(Cc4nc5ccc(C(=O)O)cc5n4C[C@@H]4CCO4)cc3F)n2)c(F)c1` [Compound CE-2], for which the bioavailability in data set [1] is 27.4 ± 12.9%. Regarding `N#Cc1ccc(COc2cccc(C3CCN(Cc4nc5ccc(C(=O)O)cc5n4C[C@@H]4CCO4)CC3)n2)c(F)c1` [CE-1, (S)-2-((4-(6-((4-cyano-2-fluorobenzyl)oxy)pyridin-2-yl)piperidin-1-yl)methyl)-1-(oxetan-2-ylmethyl)-1H-benzo[d]imidazole-6-carboxylic acid, reference compound], the “plasma exposures after the 12 h period” value in data set [1] (single oral dose of 1 mg/kg, monkey, FIG. 1) was “below the detection limit”. Broadly, the Tmax is the time from dosing to the highest level. What is called Cmax is the peak of the concentration-time curve. `O=C(O)c1cc(F)c2nc(Cc3cc(F)c(-c4cccc(OCc5ncc(C(F)(F)F)s5)n4)cc3F)n(C[C@@H]3CCO3)c2c1` [Example 253, (S)-2-(2,5-difluoro-4-(6-((5-(trifluoromethyl)thiazol-2-yl)methoxy)pyridin-2-yl)benzyl)-4-fluoro-1-(oxetan-2-ylmethyl)-1H-benzo[d]imidazole-6-carboxylic acid]: in data set [1], the Tmax came out at 5.3 ± 2.3 h, the AUC(0-t) turned out to be 6.39 ± 2.36 µM·h, the Cmax was determined as 0.582 ± 0.296 µM and the bioavailability was 55.7 ± 20.6%. Broadly, the EC50 is the concentration that produces a half-maximal response. On to `O=C(O)c1ccc2nc(Cc3cc(F)c(-c4cccc(OCc5ncc(C(F)(F)F)s5)n4)cc3F)n(C[C@@H]3CCO3)c2c1` [Example 54, (S)-2-(2,5-difluoro-4-(6-((5-(trifluoromethyl)thiazol-2-yl)methoxy)pyridin-2-yl)benzyl)-1-(oxetan-2-ylmethyl)-1H-benzo[d]imidazole-6-carboxylic acid], for which the EC50 in data set [2] came to 0.09 nM. Further, in data set [1], the time of peak concentration (Tmax) was found to be 4.7 ± 1.2 h, the AUC(0-t) was determined as 14.2 ± 7.69 µM·h, the maximum concentration (Cmax) was determined as 1.27 ± 0.628 µM and the bioavailability was 89 ± 33%. For `N#Cc1ccc(COc2cccc(C3CCN(Cc4nc5ccc(C(=O)O)cc5n4C[C@@H]4CCO4)CC3)n2)c(F)c1` [Compound CE-1], in data set [1], the bioavailability was determined as 2.5 ± 0.2%.

`O=C(O)c1cc(F)c2nc(Cc3cc(F)c(-c4ccc(F)c(OCc5ncc(C(F)(F)F)s5)n4)cc3F)n(C[C@@H]3CCO3)c2c1` [Example 313, (S)-2-(2,5-difluoro-4-(5-fluoro-6-((5-(trifluoromethyl)thiazol-2-yl)methoxy)pyridin-2-yl)benzyl)-4-fluoro-1-(oxetan-2-ylmethyl)-1H-benzo[d]imidazole-6-carboxylic acid] gave a concentration giving a half-maximal response (EC50) in data set [2] of 0.032 nM. In data set [2], `COc1nnc(COc2nc(-c3cc(F)c(Cc4nc5c(F)cc(C(=O)O)cc5n4[C@@H]4COCC4(C)C)cc3F)ccc2F)s1` [Example 346, (S)-2-(2,5-difluoro-4-(5-fluoro-6-((5-methoxy-1,3,4-thiadiazol-2-yl)methoxy)pyridin-2-yl)benzyl)-1-(4,4-dimethyltetrahydrofuran-3-yl)-4-fluoro-1H-benzo[d]imidazole-6-carboxylic acid] returned a 50% effective concentration (EC50) of 0.027 nM.

`COc1nnc(COc2nc(-c3cc(Cl)c(Cc4nc5ccc(C(=O)O)cc5n4[C@@H]4COCC4(C)C)cc3C)ccc2F)s1` [Example 441, (S)-2-(2-chloro-4-(5-fluoro-6-((5-methoxy-1,3,4-thiadiazol-2-yl)methoxy)pyridin-2-yl)-5-methylbenzyl)-1-(4,4-dimethyltetrahydrofuran-3-yl)-1H-benzo[d]imidazole-6-carboxylic acid] had an EC50 in data set [2] of 0.475 nM. With `CNC(=O)c1cc(Cl)c(COc2cccc(-c3cc(F)c(Cc4nc5c(F)cc(C(=O)O)cc5n4C[C@@H](C)OC)cc3F)n2)cn1` [Example 393, (R)-2-(4-(6-((4-chloro-6-(methylcarbamoyl)pyridin-3-yl)methoxy)pyridin-2-yl)-2,5-difluorobenzyl)-4-fluoro-1-(2-methoxypropyl)-1H-benzo[d]imidazole-6-carboxylic acid], the EC50 in data set [2] is 0.777 nM. On the same count and under the same terms, under `COc1nnc(COc2cccc(-c3cc(F)c(Cc4nc5c(F)cc(C(=O)O)cc5n4CC4(C(F)F)CC4)cc3F)n2)s1` [Example 275, 2-(2,5-difluoro-4-(6-((5-methoxy-1,3,4-thiadiazol-2-yl)methoxy)pyridin-2-yl)benzyl)-1-((1-(difluoromethyl)cyclopropyl)methyl)-4-fluoro-1H-benzo[d]imidazole-6-carboxylic acid] stands 0.372 nM; under `O=C(O)c1cc(F)c2nc(Cc3cc(F)c(-c4ccc(F)c(OCc5ncc(-c6cnn(C(F)F)c6)s5)c4)cc3F)n(C[C@@H]3CCO3)c2c1` [Example 387, (S)-2-((3′-((5-(1-(difluoromethyl)-1H-pyrazol-4-yl)thiazol-2-yl)methoxy)-2,4′,5-trifluoro-[1,1′-biphenyl]-4-yl)methyl)-4-fluoro-1-(oxetan-2-ylmethyl)-1H-benzo[d]imidazole-6-carboxylic acid], 0.095 nM; under `Cn1cc(-c2cc(F)c(COc3cccc(-c4cc(F)c(Cc5nc6ccc(C(=O)O)cc6n5C[C@@H]5CCO5)cc4F)n3)s2)cn1` [Example 86, (S)-2-(2,5-difluoro-4-(6-((3-fluoro-5-(1-methyl-1H-pyrazol-4-yl)thiophen-2-yl)methoxy)pyridin-2-yl)benzyl)-1-(oxetan-2-ylmethyl)-1H-benzo[d]imidazole-6-carboxylic acid], 0.14 nM. The same measure, in the same setting: under `O=C(O)c1ccc2nc(Cc3cc(F)c(-c4cccc(OCc5ccn(-c6ccccc6)n5)n4)cc3F)n(C[C@@H]3CCO3)c2c1` [Example 120, (S)-2-(2,5-difluoro-4-(6-((1-phenyl-1H-pyrazol-3-yl)methoxy)pyridin-2-yl)benzyl)-1-(oxetan-2-ylmethyl)-1H-benzo[d]imidazole-6-carboxylic acid] stands 2.84 nM; under `Cc1cn(C)nc1COc1cccc(-c2cc(F)c(Cc3nc4ccc(C(=O)O)cc4n3C[C@@H]3CCO3)cc2F)n1` [Example 77, (S)-2-(4-(6-((1,4-dimethyl-1H-pyrazol-3-yl)methoxy)pyridin-2-yl)-2,5-difluorobenzyl)-1-(oxetan-2-ylmethyl)-1H-benzo[d]imidazole-6-carboxylic acid], 6.32 nM. Same read-out and setting: under `CC(=O)N1CC(Oc2nnc(COc3cccc(-c4cc(F)c(Cc5nc6ccc(C(=O)O)cc6n5C[C@@H]5CCO5)cc4F)n3)s2)C1` [Example 348, (S)-2-(4-(6-((5-((1-acetylazetidin-3-yl)oxy)-1,3,4-thiadiazol-2-yl)methoxy)pyridin-2-yl)-2,5-difluorobenzyl)-1-(oxetan-2-ylmethyl)-1H-benzo[d]imidazole-6-carboxylic acid] stands 1.87 nM; under `O=C(O)c1ccc2nc(Cc3cc(F)c(-c4cccc(OCc5cc(C(F)(F)F)cs5)n4)cc3F)n(C[C@@H]3CCO3)c2c1` [Example 55, (S)-2-(2,5-difluoro-4-(6-((4-(trifluoromethyl)thiophen-2-yl)methoxy)pyridin-2-yl)benzyl)-1-(oxetan-2-ylmethyl)-1H-benzo[d]imidazole-6-carboxylic acid], 0.44 nM.
